According to patent US7229803B2, “Reaction of (di)amines in the presence of a lysine oxidase and of a reducing agent” (BASF Aktiengesellschaft, priority 2001, dated 2007):

target: T1, lysine oxidase from Pichia pastoris (Komagataella pastoris, UniProt Q96X16); assay: Assays with various substrates: conversion in the presence of lysine oxidase (peroxidase/4-aminoantipyrine/phenol dye, absorption at 500 nm); assay type: biochemical; conditions: substrate 18.75-1200 μmol/l in water, no reducing agent, L-lysine = 100
T1 construct: Purification of the Lysine Oxidase from Pichia pastoris; endogenous in cells; host or cells: Pichia pastoris (enzyme purified from the yeast itself)
T1 sequence (Q96X16 19-787): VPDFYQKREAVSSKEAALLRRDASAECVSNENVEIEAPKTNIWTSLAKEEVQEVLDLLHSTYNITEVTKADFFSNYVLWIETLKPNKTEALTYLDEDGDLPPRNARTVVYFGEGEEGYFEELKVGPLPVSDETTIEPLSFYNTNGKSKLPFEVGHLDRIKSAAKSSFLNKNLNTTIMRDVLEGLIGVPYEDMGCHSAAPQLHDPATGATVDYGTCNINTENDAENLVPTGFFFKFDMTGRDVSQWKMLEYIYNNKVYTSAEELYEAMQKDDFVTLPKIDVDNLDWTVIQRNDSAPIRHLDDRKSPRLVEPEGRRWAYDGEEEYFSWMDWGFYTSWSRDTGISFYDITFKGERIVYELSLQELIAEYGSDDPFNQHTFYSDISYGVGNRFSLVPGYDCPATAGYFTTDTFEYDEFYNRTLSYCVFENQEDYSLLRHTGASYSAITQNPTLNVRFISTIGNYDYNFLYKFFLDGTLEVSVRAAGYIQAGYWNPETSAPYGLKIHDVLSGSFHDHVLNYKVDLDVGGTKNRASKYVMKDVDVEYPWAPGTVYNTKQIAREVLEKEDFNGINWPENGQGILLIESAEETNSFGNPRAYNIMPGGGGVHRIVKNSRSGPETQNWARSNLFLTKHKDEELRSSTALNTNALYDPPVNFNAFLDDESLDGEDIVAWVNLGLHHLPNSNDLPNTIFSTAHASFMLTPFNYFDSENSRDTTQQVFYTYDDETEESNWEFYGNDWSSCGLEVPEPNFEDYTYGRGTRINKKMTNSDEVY
Experimental: Measurement series in each case with a concentration of 1 200, 600, 300, 150, 75, 37.5 and 18.75 μmol of (di)amine per 1 l of water were carried out in a microtiter plate. 2 measurement series were carried out in each case; one with enzyme and one without enzyme as reference.
100 μl of each of the diluted solutions were taken. To this solution were added 25 μl of lysine oxidase and 40 μl of 35 millimolar phenol solution in 200 millimolar potassium phosphate/potassium diphosphate solution with a pH of 7.5, 40 μl of a 2 millimolar aqueous 4-aminoantipyrine solution and 40 μl of a solution of 0.35 mg of peroxidase (horseradish from Sigma) in 1 ml of water.
In the reference measurement series, the 25 μl of lysine oxidase were replaced by 25 μl of water. A violet dye was formed by the […] produced on conversion of the substrates and its absorption in the UV at 500 nm was measured (T. Uwajima, O. Terada, Methods in Enzymology 1982, 89, 243 ff.).

Compound | Relative conversion rate compared with L-lysine in % [%]
NCCCCN [1,4-Diaminobutane] | 133
NCCCCCCN [1,6-Diaminohexane] | 180
NCCCCCCCCN [1,8-Diaminooctane] | 197
NCc1cccnc1 [3-Aminomethylpyridine] | 128
NCc1ccccc1 [Benzylamine] | 108
NCCCC[C@@H](N)C(=O)O [D-Lysine] | 100
NCC(O)CCC(N)C(=O)O [D/L-5-Hydroxylysine] | 60
NCCCC(N)C(=O)OC(F)F [D/L-Ornithine difluoromethyl ester] | 39
NCCO [Ethanolamine] | 50
NCCN [Ethylenediamine] | 84
CCOC(=O)CN [Glycine ethyl ester] | 93
NCCCC[C@H](N)C(=O)O [L-Lysine] | 100
NCCCNCCCCNCCCN [Spermine] | 185
CCCCN [n-Butylamine] | 63
CC(=O)N[C@@H](CCCCN)C(=O)O [α-N-Acetyllysine] | 120
